In US20100261710A1, “HDAC Inhibitors” (ARQULE, INC., priority 2007, published 2010) one finds IC50 data, which are given here for seven compounds.

One experiment addresses T1, HDAC9 (Homo sapiens, UniProt Q9UKV0).
T1 construct: purchased BioMol
As to the kind of experiment: HDAC isoform assay, HDAC9. Type of experiment: biochemical.

The target in the next experiment is T2, HDAC1 (Homo sapiens, UniProt Q13547).
T2 construct: cell extract containing HDAC (HeLa in these experiments); endogenous in cells; host or cells: HeLa cell extract
T2 sequence (Q13547 whole entry): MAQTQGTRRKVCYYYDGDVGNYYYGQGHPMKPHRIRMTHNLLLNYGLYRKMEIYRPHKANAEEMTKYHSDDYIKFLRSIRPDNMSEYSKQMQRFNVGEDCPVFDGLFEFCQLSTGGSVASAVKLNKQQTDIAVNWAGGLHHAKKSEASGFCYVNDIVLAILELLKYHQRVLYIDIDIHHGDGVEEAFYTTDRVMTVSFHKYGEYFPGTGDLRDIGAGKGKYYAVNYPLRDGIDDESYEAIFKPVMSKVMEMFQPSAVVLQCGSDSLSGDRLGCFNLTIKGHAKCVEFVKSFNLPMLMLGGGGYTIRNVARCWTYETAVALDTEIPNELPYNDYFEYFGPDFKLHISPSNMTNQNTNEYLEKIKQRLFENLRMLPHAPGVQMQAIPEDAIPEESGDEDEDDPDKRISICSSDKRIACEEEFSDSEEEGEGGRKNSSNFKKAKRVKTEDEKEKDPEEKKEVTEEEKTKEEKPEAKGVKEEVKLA
Description: HDAC-1 immunocapture fluorescent biochemical assay (HeLa lysate). Particulars: HDAC1 immunocaptured from HeLa extract. Here is the method: The HDAC-1 assay represents a novel immunocapture assay procedure. […] The HDAC1 is captured on a protein A coated plate using HDAC1 specific antibody, and is then allowed to react with the substrate.
This assay in performed in four general steps. In the first step (FIG. 1A), cell extract containing HDAC (HeLa in these experiments) is incubated with (cell signaling) rabbit polyclonal HDAC1 antibody (rabbit IgG antibody is used for background control) to allow binding of the enzyme to the antibody. In the second step, the complexed mixture is added to the protein A covered plate which captures the antibody. In the third step, after washing away unbound proteins, substrate and inhibitor are added and deacetylation is allowed to occur. […] The plate is then read on either Victor or Perkin Elmer Envision system using Umbilliferone filter set.
• A. HeLa extract complexed with HDAC1 antibody working solution (in DPBS):
Compound working solution (in HDAC buffer):
Compounds diluted in assay buffer at 2× Screening concentration. • D. Activator solution:
Trypsin (10 mg/mL) diluted 1:1600 in assay buffer containing 4 μM TSA.
Complexing of extract with antibody was carried out at room temperature for 60 min with rocking. Binding of complexes onto protein A plate was carried out at room temperature for 60 min in 50 μL. Reaction was carried out in […], in the protein A plate for 60 minutes at 37° C. 40 μL of the reaction was moved into white ½ area plate for activation and reading.
• 1. Set PIERCE Protein A plate to block with 150 μof 5% BSA in TB ST for 60 min at room temperature. • 2. […] Dilute complexes further ([…]) by addition of 3.5 mL of PBS (final total volume of 5 mL). • 4. Wash blocked protein A plate prior to complex addition with TBST. • 5. Add 50 μl of diluted complexes to Protein A plate and incubate for 60 min at room temperature. • 6. Wash plate with TB ST. • 7. Add 25 μl of diluted compounds (in HDAC buffer) to each well and incubate for 10 min at room temperature. • 8. […] Move 40 μl of reaction to a white plate and add 20 μl of activator/developer solution, mix thoroughly. • 10. Read plate.

For a further experiment, the system named is MJ cells. Description: MTS cell viability assay, MJ. Type of experiment: cell-based. As to conditions: 72 hr, read-out: MJ, IG50, MTS. Here is the method: The MTS cell viability assay was used to determine the potency of proliferation inhibitor with. MTS measures mitochondrial dehydrogenase activity and serves as surrogate readout for the number of viable cells.
For MTS assay, cells were plated in 96-well plates at 2000 cells per well and incubated in the presence of compounds for 72 hr. MTS was added to each well as instructed by manufacture (Promega) and plates were incubated for 4 h at 37° C. The absorbance of each well was measured at 490 nm using a microplate reader.
(In general: Formazan colour is commonly taken as a measure of viable cells.)

In another experiment the target is T3, HDAC3 (Homo sapiens, UniProt O15379).
T3 construct: purchased BioMol
T3 sequence (O15379 whole entry): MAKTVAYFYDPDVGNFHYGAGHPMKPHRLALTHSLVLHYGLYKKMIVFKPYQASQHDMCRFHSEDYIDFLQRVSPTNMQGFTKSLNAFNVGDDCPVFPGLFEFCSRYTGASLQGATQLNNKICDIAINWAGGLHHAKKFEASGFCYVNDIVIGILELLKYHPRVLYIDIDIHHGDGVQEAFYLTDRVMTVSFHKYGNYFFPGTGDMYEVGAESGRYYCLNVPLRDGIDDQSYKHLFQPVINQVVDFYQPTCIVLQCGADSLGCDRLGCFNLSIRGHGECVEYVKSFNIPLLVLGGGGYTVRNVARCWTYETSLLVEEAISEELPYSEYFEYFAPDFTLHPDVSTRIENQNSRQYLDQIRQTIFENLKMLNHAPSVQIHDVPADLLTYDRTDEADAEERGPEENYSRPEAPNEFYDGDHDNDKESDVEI
T3 sequence (O75376 395-489 partner limits assumed): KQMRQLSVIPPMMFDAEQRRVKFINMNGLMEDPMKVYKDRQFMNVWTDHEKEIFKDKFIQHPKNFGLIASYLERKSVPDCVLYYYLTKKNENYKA
Description: HDAC isoform assay, HDAC3. Format: biochemical.

The target of another experiment is T4, HDAC4 (Homo sapiens, UniProt P56524).
T4 construct: purchased BioMol
T4 sequence (P56524 whole entry): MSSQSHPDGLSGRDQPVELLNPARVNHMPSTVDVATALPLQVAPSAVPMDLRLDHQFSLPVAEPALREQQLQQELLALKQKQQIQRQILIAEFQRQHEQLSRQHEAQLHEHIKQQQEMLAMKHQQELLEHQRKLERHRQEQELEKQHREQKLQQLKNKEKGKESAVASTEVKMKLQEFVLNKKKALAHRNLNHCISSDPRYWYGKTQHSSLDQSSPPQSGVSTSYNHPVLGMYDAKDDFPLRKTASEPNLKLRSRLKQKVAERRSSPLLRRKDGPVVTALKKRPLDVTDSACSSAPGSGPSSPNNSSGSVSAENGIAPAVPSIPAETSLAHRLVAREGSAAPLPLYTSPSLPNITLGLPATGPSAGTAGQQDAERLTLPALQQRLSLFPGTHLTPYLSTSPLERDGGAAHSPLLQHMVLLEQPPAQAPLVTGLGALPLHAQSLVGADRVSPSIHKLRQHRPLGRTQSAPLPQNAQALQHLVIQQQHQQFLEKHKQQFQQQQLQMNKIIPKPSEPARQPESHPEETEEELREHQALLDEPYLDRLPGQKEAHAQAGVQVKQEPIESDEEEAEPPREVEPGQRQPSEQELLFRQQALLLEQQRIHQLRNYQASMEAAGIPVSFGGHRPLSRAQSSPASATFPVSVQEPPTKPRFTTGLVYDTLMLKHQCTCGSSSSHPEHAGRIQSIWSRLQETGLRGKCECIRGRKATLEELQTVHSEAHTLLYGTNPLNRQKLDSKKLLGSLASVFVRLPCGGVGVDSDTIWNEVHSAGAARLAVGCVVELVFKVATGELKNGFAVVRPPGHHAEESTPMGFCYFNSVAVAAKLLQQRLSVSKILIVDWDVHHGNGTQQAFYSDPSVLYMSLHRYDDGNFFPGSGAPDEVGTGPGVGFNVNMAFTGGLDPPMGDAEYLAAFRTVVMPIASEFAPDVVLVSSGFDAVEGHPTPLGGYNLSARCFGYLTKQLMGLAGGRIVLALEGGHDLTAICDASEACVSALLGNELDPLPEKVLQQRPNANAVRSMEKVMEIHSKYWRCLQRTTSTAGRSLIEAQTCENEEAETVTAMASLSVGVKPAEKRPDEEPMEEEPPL
As to the kind of experiment: HDAC isoform assay, HDAC4. Format: biochemical. Particulars: substrate KI-177; read-out: HDAC4, IC50, ELISA (KI-177). Background: ELISA stands for enzyme-linked immunosorbent assay.

Setting [1] is: substrate KI-177, read-out: HDAC3, IC50, ELISA (KI-177).

Like-named read-outs stand apart in the source and are kept apart here.

T1 sequence (Q9UKV0 whole entry): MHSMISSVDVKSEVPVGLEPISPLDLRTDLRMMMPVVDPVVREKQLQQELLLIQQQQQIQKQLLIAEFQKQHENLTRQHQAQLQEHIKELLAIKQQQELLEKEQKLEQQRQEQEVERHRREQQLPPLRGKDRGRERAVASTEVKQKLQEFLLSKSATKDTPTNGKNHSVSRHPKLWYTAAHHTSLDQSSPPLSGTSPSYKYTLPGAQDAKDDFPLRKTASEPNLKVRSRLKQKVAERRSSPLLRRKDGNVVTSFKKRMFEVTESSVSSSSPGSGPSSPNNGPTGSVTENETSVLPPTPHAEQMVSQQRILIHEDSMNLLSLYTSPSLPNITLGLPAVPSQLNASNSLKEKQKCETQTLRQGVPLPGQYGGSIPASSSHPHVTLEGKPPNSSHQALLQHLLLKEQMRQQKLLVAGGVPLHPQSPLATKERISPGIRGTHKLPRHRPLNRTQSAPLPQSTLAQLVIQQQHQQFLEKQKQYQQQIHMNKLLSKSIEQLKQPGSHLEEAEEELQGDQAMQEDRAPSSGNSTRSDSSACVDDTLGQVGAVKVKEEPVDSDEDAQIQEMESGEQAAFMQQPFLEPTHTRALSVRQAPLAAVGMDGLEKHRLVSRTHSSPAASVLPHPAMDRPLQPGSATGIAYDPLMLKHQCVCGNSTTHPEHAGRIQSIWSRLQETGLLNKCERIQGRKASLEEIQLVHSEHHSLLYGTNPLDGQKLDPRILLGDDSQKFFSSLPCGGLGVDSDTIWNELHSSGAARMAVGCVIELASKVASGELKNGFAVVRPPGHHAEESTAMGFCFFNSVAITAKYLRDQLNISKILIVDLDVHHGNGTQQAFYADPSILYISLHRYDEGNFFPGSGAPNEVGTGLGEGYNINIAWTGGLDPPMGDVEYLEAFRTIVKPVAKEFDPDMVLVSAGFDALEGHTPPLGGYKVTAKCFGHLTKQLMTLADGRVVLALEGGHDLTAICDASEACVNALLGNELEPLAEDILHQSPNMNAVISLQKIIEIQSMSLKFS
Description for HDAC3: The assay measures the ability of a small molecule to inhibit deacetylation of the substrate. Activator reagent recognizes the substrate only if the lysine has been deacetylated.
This homogeneous assay in performed in the same well without washing steps. The HDAC source, nuclear HeLa extract, is incubated with substrate in the presence of an inhibitor compound. At the end of the reaction time, activator solution, containing Trypsin and TSA, is added to stop the deacetylation reaction, and cleave the amino-coumarin from the deacetylated substrate. The plate is then read on either a Perkin Elmer Victor or Envision system using Umbilliferone filter set. […] The signal is directly proportional to the activity of HDACs and compound inhibition of HDAC is monitored by a decrease in signal.

Turning to `O=C(CCCCCNC(=O)c1cn2c3c(cccc13)CCC2)NO` [compound 2, N-[6-(hydroxyamino)-6-oxohexyl]-5,6-dihydro-4H-pyrrolo[3,2,1-ij]quinoline-1-carboxamide], the IC50 on HDAC9 came to 106 nM; against HDAC1 it was 13.2 nM; in the experiment on MJ cells, 5000 nM; against HDAC3, 13.6 nM.

Take `O=C(CCCCCCNC(=O)c1cn2c3c(cccc13)CCC2)NO` [compound 3, N-[7-(hydroxyamino)-7-oxoheptyl]-5,6-dihydro-4H-pyrrolo[3,2,1-ij]quinoline-1-carboxamide]: the IC50 on HDAC4 came out at 40.5 nM; against HDAC9, 413 nM; on HDAC1, 41 nM; in the experiment with MJ cells, 120 nM; against HDAC3, 45.7 nM.

As to `O=C(CCCCCNC(=O)C(=O)c1cn2c3c(cccc13)CCC2)NO` [compound 8, 6-{[5,6-dihydro-4H-pyrrolo[3,2,1-ij]quinolin-1-yl(oxo)acetyl]amino}-N-hydroxyhexanamide], the IC50 was 45 nM on HDAC1, 7680 nM in the experiment on MJ cells and 20.4 nM against HDAC3.

Turning to `O=C(CCCNC(=O)C(=O)c1cn2c3c(cccc13)CCC2)NO` [compound 9, 4-{[5,6-dihydro-4H-pyrrolo[3,2,1-ij]quinolin-1-yl(oxo)acetyl]amino}-N-hydroxybutanamide], the figures for the IC50 at HDAC1, in the experiment on MJ cells and against HDAC3 were 583 nM, 4110 nM and 630 nM, respectively.

For the compound `O=C(CCCCCCNC(=O)Nc1cn2c3c(cccc13)CCC2)NO` [compound 11, 7-[(5,6-dihydro-4H-pyrrolo[3,2,1-ij]quinolin-1-ylcarbamoyl)amino]-N-hydroxyheptanamide], the IC50 at HDAC4 came out at 40.4 nM; at HDAC9, 88.7 nM; at HDAC1 it was 22 nM; in the experiment on MJ cells, 470 nM; on HDAC3 (setting [1]) it was 23 nM.

With `O=C(CCCCCCNC(=O)C(=O)c1cn2c3c(cccc13)CCC2)NO` [compound 12, 7-{[5,6-dihydro-4H-pyrrolo[3,2,1-ij]quinolin-1-yl(oxo)acetyl]amino}-N-hydroxyheptanamide], the IC50 was 298 nM on HDAC4; 1060 nM against HDAC9; 90.4 nM at HDAC1; 130 nM in the experiment with MJ cells; 87.6 nM on HDAC3 (setting [1]).

With `O=C(CCCCCNC(=O)Nc1cn2c3c(cccc13)CCC2)NO` [compound 13, 6-[(5,6-dihydro-4H-pyrrolo[3,2,1-ij]quinolin-1-ylcarbamoyl)amino]-N-hydroxyhexanamide], the IC50 against HDAC9 turned out to be 97.2 nM; against HDAC1, 18.9 nM; on HDAC3 (setting [1]), 20.5 nM.
